Here are results for 1 compound from US9491943B2, “Bioengineering strain for production of novel microorganism-originated fungicides and uses thereof” (SHANGHAI JIAOTONG UNIVERSITY, priority 2011, dated 2016).

This assay relates to rhizoctonia solani. The assay can be described thus: Antifungal rate (inhibition of hypha growth) on potato glucose culture medium plates. Format: cell-based. To be noted: 16 mg/L in potato glucose culture medium, 28° C.

`NC(=O)c1cccc2nc3ccccc3nc12` [phenazine-1-carboxamide]: the “antifungal activity (antifungal rate) against rhizoctonia solani” value is, setting by setting: (acidity (pH) 4.0) 65%; (acidity (pH) 5.0) 69%; (acidity (pH) 6.0) 73.6%; (acidity (pH) 7.0) 80.1%; (acidity (pH) 8.0) 90%.
